According to ChEMBL document CHEMBL4028801, “A multifactorial approach to hepatobiliary transporter assessment enables improved therapeutic compound development” (Toxicol Sci, 2013):
Counter-ions that a name gives are not always drawn. Positions of bridges follow the written chain, without caps; N, C: chain ends. Non-standard residues stand in square brackets, D forms with d. Residues, ends and D or L forms follow the SMILES beside them. Orn = NCCC[C@H](N)C(=O)O; Mpa = O=C(O)CCS

What was measured:
[1] = target: ATP-binding cassette sub-family C member 2 (Homo sapiens, UniProt Q92887); assay: Inhibition of human MRP2 overexpressed in Sf9 cell membrane vesicles assessed as uptake of [3H]-estradiol-17beta-D-glucuronide in presence of ATP and GSH measured after 20 mins by membrane vesicle transport assay
[2] = target: T1, ATP-binding cassette sub-family C member 4 (Homo sapiens, UniProt O15439); assay: Inhibition of human MRP4 overexpressed in Sf9 cell membrane vesicles assessed as uptake of [3H]-estradiol-17beta-D-glucuronide in presence of ATP and GSH measured after 20 mins by membrane vesicle transport assay; type: ADME, cell-based
T1 sequence (O15439 whole entry): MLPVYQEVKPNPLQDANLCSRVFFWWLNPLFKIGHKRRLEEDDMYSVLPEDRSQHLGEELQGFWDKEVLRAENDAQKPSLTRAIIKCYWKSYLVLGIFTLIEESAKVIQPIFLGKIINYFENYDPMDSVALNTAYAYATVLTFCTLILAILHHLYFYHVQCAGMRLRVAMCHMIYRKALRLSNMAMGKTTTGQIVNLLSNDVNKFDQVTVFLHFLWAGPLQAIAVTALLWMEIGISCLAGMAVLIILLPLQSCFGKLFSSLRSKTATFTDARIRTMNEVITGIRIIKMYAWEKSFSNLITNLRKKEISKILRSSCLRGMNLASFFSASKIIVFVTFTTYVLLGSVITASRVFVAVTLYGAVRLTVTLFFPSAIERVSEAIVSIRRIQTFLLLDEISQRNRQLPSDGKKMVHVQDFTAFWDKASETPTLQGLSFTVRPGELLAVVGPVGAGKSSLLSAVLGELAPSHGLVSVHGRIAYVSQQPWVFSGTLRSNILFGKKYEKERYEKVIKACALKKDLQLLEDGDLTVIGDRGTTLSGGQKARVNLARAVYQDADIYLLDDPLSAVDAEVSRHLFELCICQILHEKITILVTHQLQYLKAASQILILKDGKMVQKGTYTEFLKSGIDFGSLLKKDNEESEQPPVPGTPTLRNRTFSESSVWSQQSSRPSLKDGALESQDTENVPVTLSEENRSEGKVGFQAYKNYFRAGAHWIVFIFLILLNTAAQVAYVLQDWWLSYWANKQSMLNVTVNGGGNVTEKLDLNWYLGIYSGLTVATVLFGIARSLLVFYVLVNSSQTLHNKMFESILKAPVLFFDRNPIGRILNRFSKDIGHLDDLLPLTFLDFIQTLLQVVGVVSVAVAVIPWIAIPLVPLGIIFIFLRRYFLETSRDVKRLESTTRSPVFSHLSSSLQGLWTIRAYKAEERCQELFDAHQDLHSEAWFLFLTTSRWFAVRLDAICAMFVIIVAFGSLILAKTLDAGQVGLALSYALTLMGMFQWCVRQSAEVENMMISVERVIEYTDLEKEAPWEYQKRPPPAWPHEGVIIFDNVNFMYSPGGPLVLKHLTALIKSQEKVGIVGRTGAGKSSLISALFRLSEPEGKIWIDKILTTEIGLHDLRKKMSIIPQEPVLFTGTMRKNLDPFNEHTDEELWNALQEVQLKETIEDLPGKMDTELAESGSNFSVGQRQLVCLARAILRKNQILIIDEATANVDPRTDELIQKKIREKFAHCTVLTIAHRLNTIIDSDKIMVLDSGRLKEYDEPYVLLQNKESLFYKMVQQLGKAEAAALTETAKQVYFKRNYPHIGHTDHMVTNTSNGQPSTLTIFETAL

[3] = target: ATP-binding cassette sub-family C member 3 (Homo sapiens, UniProt O15438); assay: Inhibition of human MRP3 overexpressed in Sf9 insect cell membrane vesicles assessed as uptake of [3H]-estradiol-17beta-D-glucuronide in presence of ATP and GSH measured after 10 mins by membrane vesicle transport assay; type: ADME, cell-based
Bile salt export pump = Bile salt export pump (Homo sapiens, UniProt O95342); assay: Inhibition of human BSEP overexpressed in Sf9 cell membrane vesicles assessed as uptake of [3H]-taurocholate in presence of ATP measured after 15 to 20 mins by membrane vesicle transport assay; type: ADME, cell-based
Bile salt export pump, sequence (O95342 whole entry): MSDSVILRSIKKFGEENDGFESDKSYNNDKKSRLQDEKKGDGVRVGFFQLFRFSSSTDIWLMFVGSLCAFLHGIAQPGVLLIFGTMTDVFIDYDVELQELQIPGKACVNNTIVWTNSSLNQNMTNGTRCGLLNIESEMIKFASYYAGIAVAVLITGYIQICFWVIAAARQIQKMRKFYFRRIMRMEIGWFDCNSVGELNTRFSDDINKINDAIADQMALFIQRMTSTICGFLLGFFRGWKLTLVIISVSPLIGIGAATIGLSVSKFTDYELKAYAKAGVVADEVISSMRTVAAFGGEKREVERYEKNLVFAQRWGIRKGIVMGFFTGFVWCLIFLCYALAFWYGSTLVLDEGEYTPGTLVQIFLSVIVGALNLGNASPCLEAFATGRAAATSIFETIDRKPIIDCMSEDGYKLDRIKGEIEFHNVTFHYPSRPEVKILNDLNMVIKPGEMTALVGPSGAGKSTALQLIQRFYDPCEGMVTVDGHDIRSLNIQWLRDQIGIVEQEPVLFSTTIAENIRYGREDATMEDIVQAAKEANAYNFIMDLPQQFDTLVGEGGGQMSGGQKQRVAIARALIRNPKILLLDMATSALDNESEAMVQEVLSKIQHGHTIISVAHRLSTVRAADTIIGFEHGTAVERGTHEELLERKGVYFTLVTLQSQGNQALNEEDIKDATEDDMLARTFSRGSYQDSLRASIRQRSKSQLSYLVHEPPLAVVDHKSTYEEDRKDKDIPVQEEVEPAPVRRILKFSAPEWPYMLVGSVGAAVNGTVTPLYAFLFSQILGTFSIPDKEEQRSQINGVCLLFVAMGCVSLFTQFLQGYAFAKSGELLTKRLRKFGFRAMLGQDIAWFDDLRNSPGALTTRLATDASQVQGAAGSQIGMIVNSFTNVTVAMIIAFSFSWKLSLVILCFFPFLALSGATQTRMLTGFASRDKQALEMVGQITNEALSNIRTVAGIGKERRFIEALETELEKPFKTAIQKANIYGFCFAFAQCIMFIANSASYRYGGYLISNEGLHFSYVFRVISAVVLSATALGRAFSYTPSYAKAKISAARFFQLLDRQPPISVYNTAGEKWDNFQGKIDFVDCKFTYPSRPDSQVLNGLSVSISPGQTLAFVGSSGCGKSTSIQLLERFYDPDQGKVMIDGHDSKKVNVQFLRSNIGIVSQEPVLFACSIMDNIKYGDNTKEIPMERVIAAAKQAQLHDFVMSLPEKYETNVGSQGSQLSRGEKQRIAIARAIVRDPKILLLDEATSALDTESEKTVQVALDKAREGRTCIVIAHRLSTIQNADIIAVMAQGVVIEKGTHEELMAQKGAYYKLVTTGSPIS

ATP-binding cassette sub-family C member 3, sequence (O15438 whole entry): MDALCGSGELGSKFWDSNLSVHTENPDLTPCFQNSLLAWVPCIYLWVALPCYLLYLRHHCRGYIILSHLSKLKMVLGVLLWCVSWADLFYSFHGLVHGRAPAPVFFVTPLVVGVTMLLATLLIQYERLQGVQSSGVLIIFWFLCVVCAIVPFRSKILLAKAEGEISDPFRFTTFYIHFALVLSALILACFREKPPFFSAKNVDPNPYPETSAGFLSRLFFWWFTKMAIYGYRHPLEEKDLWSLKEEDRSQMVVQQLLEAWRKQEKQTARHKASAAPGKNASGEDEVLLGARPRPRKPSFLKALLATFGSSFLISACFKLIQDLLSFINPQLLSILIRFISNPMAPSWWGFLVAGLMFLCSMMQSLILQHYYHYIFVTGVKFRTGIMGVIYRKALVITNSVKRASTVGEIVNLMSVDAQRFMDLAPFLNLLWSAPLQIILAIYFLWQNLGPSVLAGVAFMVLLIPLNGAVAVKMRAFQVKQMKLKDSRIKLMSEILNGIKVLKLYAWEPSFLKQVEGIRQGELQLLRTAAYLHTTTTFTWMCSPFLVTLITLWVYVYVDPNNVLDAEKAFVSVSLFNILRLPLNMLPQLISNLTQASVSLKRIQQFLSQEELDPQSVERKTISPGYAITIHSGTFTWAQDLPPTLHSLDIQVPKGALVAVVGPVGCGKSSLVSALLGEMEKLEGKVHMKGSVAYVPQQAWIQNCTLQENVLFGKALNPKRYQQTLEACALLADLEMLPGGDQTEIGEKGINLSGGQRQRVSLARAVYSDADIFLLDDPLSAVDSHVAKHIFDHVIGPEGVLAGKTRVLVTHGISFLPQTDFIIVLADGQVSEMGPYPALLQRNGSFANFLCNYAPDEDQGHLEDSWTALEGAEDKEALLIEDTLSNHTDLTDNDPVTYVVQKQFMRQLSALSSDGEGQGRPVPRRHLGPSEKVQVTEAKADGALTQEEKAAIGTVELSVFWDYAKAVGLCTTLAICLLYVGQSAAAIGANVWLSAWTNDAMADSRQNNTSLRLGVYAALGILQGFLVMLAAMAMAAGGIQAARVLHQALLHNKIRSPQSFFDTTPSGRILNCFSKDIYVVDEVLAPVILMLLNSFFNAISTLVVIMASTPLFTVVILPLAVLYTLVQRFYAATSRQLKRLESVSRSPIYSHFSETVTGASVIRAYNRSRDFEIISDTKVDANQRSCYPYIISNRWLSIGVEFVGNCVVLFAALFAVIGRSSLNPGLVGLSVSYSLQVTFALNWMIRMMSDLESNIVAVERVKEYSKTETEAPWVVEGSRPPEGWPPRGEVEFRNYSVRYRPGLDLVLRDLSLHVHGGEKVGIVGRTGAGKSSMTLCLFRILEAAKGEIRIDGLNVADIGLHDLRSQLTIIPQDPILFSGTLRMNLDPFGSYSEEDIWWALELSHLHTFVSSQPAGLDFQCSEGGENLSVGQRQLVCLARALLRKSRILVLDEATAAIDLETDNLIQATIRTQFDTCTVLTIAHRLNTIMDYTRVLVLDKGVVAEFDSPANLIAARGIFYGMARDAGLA
ATP-binding cassette sub-family C member 2, sequence (Q92887 whole entry): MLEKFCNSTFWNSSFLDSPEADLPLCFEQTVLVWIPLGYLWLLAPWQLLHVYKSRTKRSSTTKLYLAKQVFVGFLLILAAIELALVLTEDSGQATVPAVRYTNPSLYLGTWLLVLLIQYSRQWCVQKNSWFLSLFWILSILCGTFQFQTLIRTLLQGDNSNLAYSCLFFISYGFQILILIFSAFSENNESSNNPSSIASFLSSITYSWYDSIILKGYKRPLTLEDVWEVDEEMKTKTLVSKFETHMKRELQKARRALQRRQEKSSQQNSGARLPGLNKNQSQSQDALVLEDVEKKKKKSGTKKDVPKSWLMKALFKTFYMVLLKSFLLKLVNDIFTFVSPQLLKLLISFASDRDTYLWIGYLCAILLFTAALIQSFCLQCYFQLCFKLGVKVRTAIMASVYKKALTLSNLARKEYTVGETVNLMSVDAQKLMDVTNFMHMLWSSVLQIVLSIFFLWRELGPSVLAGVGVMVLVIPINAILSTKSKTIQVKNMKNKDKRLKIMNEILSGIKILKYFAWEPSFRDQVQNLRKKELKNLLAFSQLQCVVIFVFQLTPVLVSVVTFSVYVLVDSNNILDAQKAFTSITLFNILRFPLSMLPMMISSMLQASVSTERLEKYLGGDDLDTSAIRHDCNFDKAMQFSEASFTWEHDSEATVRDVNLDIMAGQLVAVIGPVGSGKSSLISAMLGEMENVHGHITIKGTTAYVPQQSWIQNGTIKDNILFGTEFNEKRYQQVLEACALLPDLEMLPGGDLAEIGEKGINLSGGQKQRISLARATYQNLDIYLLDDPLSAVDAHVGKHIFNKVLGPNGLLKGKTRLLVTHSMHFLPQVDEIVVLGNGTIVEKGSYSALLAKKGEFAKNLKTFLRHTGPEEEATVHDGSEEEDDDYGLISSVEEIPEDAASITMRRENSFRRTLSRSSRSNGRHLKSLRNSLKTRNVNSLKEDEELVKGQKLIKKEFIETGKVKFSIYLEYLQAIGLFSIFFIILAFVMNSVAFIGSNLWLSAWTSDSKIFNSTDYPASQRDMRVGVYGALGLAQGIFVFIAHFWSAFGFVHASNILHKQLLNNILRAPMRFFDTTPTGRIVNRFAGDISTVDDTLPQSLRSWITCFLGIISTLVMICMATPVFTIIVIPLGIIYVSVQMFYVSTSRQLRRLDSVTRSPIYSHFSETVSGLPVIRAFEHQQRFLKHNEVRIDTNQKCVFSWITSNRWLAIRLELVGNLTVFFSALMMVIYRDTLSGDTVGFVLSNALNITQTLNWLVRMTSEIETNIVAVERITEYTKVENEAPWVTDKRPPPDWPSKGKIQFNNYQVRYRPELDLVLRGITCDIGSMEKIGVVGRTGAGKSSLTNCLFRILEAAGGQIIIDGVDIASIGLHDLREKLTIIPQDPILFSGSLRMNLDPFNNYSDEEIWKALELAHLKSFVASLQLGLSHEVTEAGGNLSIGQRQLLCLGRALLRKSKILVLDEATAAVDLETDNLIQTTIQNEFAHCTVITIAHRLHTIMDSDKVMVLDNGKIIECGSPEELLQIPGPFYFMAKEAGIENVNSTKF

Row | SMILES | IC50 [1] [µM] | IC50 [2] [µM] | IC50 [3] [µM] | IC50 (Bile salt export pump) [µM]
1 | CO[C@H]1O[C@@H]2O[C@@]3(C)CC[C@H]4[C@H](C)CC[C@@H]([C@H]1C)[C@@]24OO3 | > 133 | > 133 | > 133 | > 133
2 | C[C@H]1CN(C[C@H](Cc2ccccc2)C(=O)NCC(=O)O)CC[C@@]1(C)c1cccc(O)c1 [ALVIMOPAN] | > 133 | > 133 | > 133 | > 133
3 | C[C@@](Cc1ccc(O)c(O)c1)(NN)C(=O)O [CARBIDOPA ANHYDROUS] | > 133 | > 133 | > 133 | > 133
4 | CN1CCC[C@H]1c1cccnc1 [NICOTINE] | > 133 | > 133 | > 133 | > 133
5 | CCn1cc(C(=O)O)c(=O)c2cc(F)c(N3CCNCC3)nc21 [ENOXACIN] | > 133 | > 133 | > 133 | > 133
6 | Nc1nc(Cl)nc2c1ncn2[C@H]1C[C@H](O)[C@@H](CO)O1 [CLADRIBINE] | > 133 | > 133 | > 133 | > 133
7 | O=C1OC(OC(=O)c2cccnc2Nc2cccc(C(F)(F)F)c2)c2ccccc21 (stereo not given) [TALNIFLUMATE] | > 133 | > 133 | > 133 | > 133
8 | Cc1onc(-c2ccccc2)c1C(=O)N[C@@H]1C(=O)N2[C@@H]1SC(C)(C)[C@@H]2C(=O)O | > 133 | > 133 | > 133 | > 133
9 | NCc1ccc(S(N)(=O)=O)cc1 [MAFENIDE ACETATE] | > 133 | > 133 | > 133 | > 133
10 | CC1(C)O[C@@H]2C[C@H]3[C@@H]4C[C@H](F)C5=CC(=O)C=C[C@]5(C)[C@H]4[C@@H](O)C[C@]3(C)[C@]2(C(=O)CO)O1 [FLUNISOLIDE] | > 133 | > 133 | > 133 | > 133
11 | Cc1cn([C@@H]2C[C@@H](O)[C@H](CO)O2)c(=O)[nH]c1=O [TELBIVUDINE] | > 133 | > 133 | > 133 | > 133
12 | CC1CCN(CCCC(=O)c2ccc(F)cc2)CC1 [MELPERONE] | > 133 | > 133 | > 133 | > 133
13 | N#C[C@@H]1CCCN1C(=O)CNC12CC3CC(CC(O)(C3)C1)C2 [VILDAGLIPTIN] | > 133 | > 133 | > 133 | > 133
14 | COc1cc([C@@H]2c3cc4c(cc3[C@@H](O[C@@H]3O[C@@H]5CO[C@@H](c6cccs6)O[C@H]5[C@H](O)[C@H]3O)[C@H]3COC(=O)[C@H]23)OCO4)cc(OC)c1O [TENIPOSIDE] | > 133 | 34.9 | 20.6 | > 133
15 | CCC1(c2ccccc2)C(=O)NCNC1=O [PRIMIDONE] | > 133 | > 133 | > 133 | > 133
16 | C[C@]12C/C(=C/O)C(=O)C[C@@H]1CC[C@@H]1[C@@H]2CC[C@@]2(C)[C@H]1CC[C@]2(C)O [OXYMETHOLONE] | > 133 | > 133 | > 133 | 48.7
17 | NCC1O[C@H](O[C@H]2[C@@H](O)[C@H](O[C@H]3[C@H](O)[C@@H](N)C[C@@H](N)[C@@H]3O[C@H]3O[C@H](CN)[C@@H](O)[C@H](O)[C@H]3N)O[C@@H]2CO)[C@H](N)[C@@H](O)[C@@H]1O (stereo not given in full) | > 133 | > 133 | > 133 | > 133
18 | Cn1c(=O)c2[nH]cnc2n(C)c1=O [AMINOPHYLLINE] | > 133 | 131 | > 133 | > 133

Row | SMILES | IC50 [1] [µM] | IC50 [2] [µM] | IC50 [3] [µM] | IC50 (Bile salt export pump) [µM]
19 | COc1cc(Cc2cnc(N)nc2N)cc(OC)c1OC [TRIMETHOPRIM] | > 133 | > 133 | > 133 | > 133
20 | Nc1ccn([C@@H]2O[C@H](CO)[C@@H](O)C2(F)F)c(=O)n1 [GEMCITABINE HYDROCHLORIDE] | > 133 | > 133 | > 133 | > 133
21 | Nc1ccn(C[C@@H](CO)OCP(=O)(O)O)c(=O)n1 [CIDOFOVIR] | > 133 | > 133 | > 133 | > 133
22 | C[C@]12CC[C@@H]3c4ccc(O)cc4C[C@@H](CCCCCCCCC[S+]([O-])CCCC(F)(F)C(F)(F)F)[C@H]3[C@@H]1CC[C@@H]2O (stereo not given in full) [FULVESTRANT] | > 133 | > 133 | > 133 | > 133
23 | CC(C)C[C@H](NC(=O)[C@@H](COC(C)(C)C)NC(=O)[C@H](Cc1ccc(O)cc1)NC(=O)[C@H](CO)NC(=O)[C@H](Cc1c[nH]c2ccccc12)NC(=O)[C@H](Cc1cnc[nH]1)NC(=O)[C@@H]1CCC(=O)N1)C(=O)N[C@@H](CCCNC(=N)N)C(=O)N1CCC[C@H]1C(=O)NNC(N)=O [GOSERELIN ACETATE] | > 133 | > 133 | > 133 | > 133
24 | c1cnc(N2CCN(Cc3ccc4c(c3)OCO4)CC2)nc1 [PIRIBEDIL] | > 133 | > 133 | > 133 | > 133
25 | COc1cc(NS(C)(=O)=O)ccc1Nc1c2ccccc2nc2ccccc12 [AMSACRINE] | > 133 | 7.43 | > 133 | > 133
26 | C=C[C@H]1C[N@@]2CC[C@H]1C[C@H]2[C@H](O)c1ccnc2ccc(OC)cc12 [QUININE] | > 133 | > 133 | > 133 | > 133
27 | Nc1ccn([C@H]2CC[C@@H](CO)O2)c(=O)n1 [ZALCITABINE] | > 133 | > 133 | > 133 | > 133
28 | CCOc1ccc(C[C@H]2NC(=O)CCSSC[C@@H](C(=O)N3CCC[C@H]3C(=O)N[C@@H](CCCN)C(=O)NCC(N)=O)NC(=O)[C@H](CC(N)=O)NC(=O)[C@H]([C@@H](C)O)NC(=O)[C@H]([C@@H](C)CC)NC2=O)cc1 [ATOSIBAN] ([Mpa][dY](Et)ITNCP[Orn]G-NH2; disulfide 1-6) | > 133 | > 133 | > 133 | > 133
29 | Cc1ccc(S(=O)(=O)NC(=O)NN2CC3CCCC3C2)cc1 (stereo not given) [GLICLAZIDE] | > 133 | > 133 | > 133 | > 133
30 | C#CCN[C@@H]1CCc2ccccc21 [RASAGILINE MESYLATE] | > 133 | > 133 | > 133 | > 133
31 | C=C1CC[C@H](O)C/C1=C/C=C1\CCC[C@]2(C)[C@@H]([C@H](C)/C=C/[C@H](C)C(C)C)CC[C@@H]12 [ERGOCALCIFEROL] | > 133 | > 133 | > 133 | 75.8
32 | Cc1ccc(-c2nc3ccc(C)cn3c2CC(=O)N(C)C)cc1 | > 133 | > 133 | > 133 | > 133
33 | CC(C)C[C@H](NC(=O)[C@H](Cc1ccccc1)NC(=O)c1cnccn1)B(O)O [BORTEZOMIB] | > 133 | > 133 | > 133 | > 133
34 | CC(C)(C#N)c1cc(Cn2cncn2)cc(C(C)(C)C#N)c1 [ANASTROZOLE] | > 133 | > 133 | > 133 | > 133
35 | C=CCCCCCCCCC(=O)O [UNDECYLENIC ACID] | > 133 | 63.9 | > 133 | > 133
